# Results from paper PMC4434089 (Biotechnology, Biotechnological Equipment, 2014).
# Values joined by “and” are separate entries in the source; they are usually repeats but may differ in a detail not shown here. Equal values may be shown once. Read-outs that look alike come from different tables or passages of the source. Marks after values point to notes of the source that are not given here.
# What was measured:
# [1] = test system: amylin-mediated cytotoxicity; parameters: method as in PMID 20093026; conditions: cited from earlier work
# full length amylin = test system: full length amylin; parameters: method as in 2 sources, one per row (each row's own in cited_ref): ref 58 = [58]; PMID 14565847; doi:10.1042/BJ20030852; Jaikaran E Nilsson MR Clark A Biochem J. 2004 377 709 716 14565847 10.1042/BJ20030852 PMC1223903 ||| ref 68, 93 = [68]; PMID 12054816; doi:10.1016/S0022-2836(02)00164-X; Scrocchi LA Chen Y Waschuk S Wang F Cheung S Darabie AA McLaurin J Fraser PE J Mol Biol. 2002 318 697 706 12054816 10.1016/S0022-2836(02)00164-X || [93]; PMID 12648568; doi:10.1016/s1047-8477(02)00630-5; Scrocchi LA Ha K Chen Y Wu L Wang F Fraser PE J Struct Biol. 2003 141 218 227 http://dx.doi.org/10.1016/s1047-8477(02)00630-5 12648568 10.1016/s1047-8477(02)00630-5; conditions: cited from earlier work
# amylin [2] = experiment: NTA of amylin aggregation, alone or with amylin derivatives; type: biochemical, human; conditions: for implied effect on fibrillogenesis of amylin: NTA compared with previously published reports; for Concentration of aggregates 100–150 nm, 10 min / Concentration of aggregates 200–300 nm, 10 min / Concentration of aggregates 150–200 nm, 10 min / Concentration of aggregates 100–150 nm, 24 h / Concentration of aggregates 200–300 nm, 24 h / Concentration of aggregates 150–200 nm, 24 h: amylin 50 μmol L^−1 alone (A) or with 250 μmol L^−1 derivative, pH 7.4, duplicate; for Concentration of aggregates 100–150 nm, 10 min: 10 mmol L^−1 sodium phosphate, 50 mmol L^−1 NaCl; for Concentration of aggregates 100–150 nm, 10 min / Concentration of aggregates 150–200 nm, 10 min: p < 0.05 less than A: n1, n5, m5; for Concentration of aggregates 200–300 nm, 10 min: p < 0.05 less than A: n1, n3, n5, m1, m2, m3, m4, m5; for Concentration of aggregates 100–150 nm, 24 h: p < 0.05 less than A: n1, n2, m5, significantly more: m2; for Concentration of aggregates 200–300 nm, 24 h: p < 0.05 less than A: n1, n2, n3, n4, n5, m5; for Concentration of aggregates 150–200 nm, 24 h: p < 0.05 less than A: n1, n2, n5, m5; for number of 200–300 nm aggregates at 24 h vs amylin only: amylin:derivative 50:250 μmol L^−1, p < 0.05
# Protocol: NTA measurements were performed with a NanoSight LM20 instrument (NanoSight, United Kingdom) equipped with a 640 nm laser and a temperature controlled sample chamber. […] The sample temperature was maintained at 37 °C for the entire duration of the experiment. These experimental conditions were similar to that used for a previously reported cytotoxicity experiment,[73] thus allowing correlation of results obtained from the two techniques. […] Once again, samples were maintained at 37 °C and 60 s video footage were recorded every 10 min for the first hour and then at 24 h. All videos were captured with the single shutter and gain modes. Analysis was performed using NanoSight NTA version 2.2 software with a viscosity setting of 0.70.
# amylin [3] = test system: amylin; parameters: method as in 2 sources, ref 23 = [23]; PMID 9878384; doi:10.1006/jmbi.1998.2299; Goldsbury C Kistler J Aebi U Arvinte T Cooper GJS J Mol Biol. 1999 285 33 39 9878384 10.1006/jmbi.1998.2299 ||| ref 26 = [26]; PMID 9216085; doi:10.1006/jsbi.1997.3858; Goldsbury CS Cooper GJS Goldie KN Muller SA Saafi EL Gruijters WTM Misur MP J Struct Biol. 1997 119 17 27 http://dx.doi.org/10.1006/jsbi.1997.3858 9216085 10.1006/jsbi.1997.3858; conditions: cited from earlier work
# [4] = test system: sensor chip-bound biotinylated amylin; parameters: method as in PMID 14565847; conditions: insulin over sensor chip-bound biotinylated amylin; cited from earlier work
# Aβ [5] = conditions: cited from earlier work
# Excerpt: According to a model developed by Petkova et al.,[81] the 12-21 and 30-40 regions of the Aβ peptide form the β-she ...
# Aβ [6] = conditions: SPR, cited from earlier work
# Excerpt: This was further supported by a recent SPR-based Aβ study that determined a ka of 0.01 complexes per second for Aβ association following first-order kinetics, whilst the kd wa ...
Substance,reduction of amylin-mediated cytotoxicity [1],fibril formation of full length amylin in presence of derivative (full length amylin),implied effect on fibrillogenesis of amylin (amylin [2]),"Concentration of aggregates 100–150 nm, 10 min (amylin [2]; NTA, 10 min, 37 °C)","Concentration of aggregates 200–300 nm, 10 min (amylin [2]; NTA, 10 min, 37 °C)","Concentration of aggregates 150–200 nm, 10 min (amylin [2]; NTA, 10 min, 37 °C)","Concentration of aggregates 100–150 nm, 24 h (amylin [2]; NTA, 37 °C)","Concentration of aggregates 200–300 nm, 24 h (amylin [2]; NTA, 37 °C)","Concentration of aggregates 150–200 nm, 24 h (amylin [2]; NTA, 37 °C)",number of 200–300 nm aggregates at 24 h vs amylin only (amylin [2]; NTA),also measured
NFGAIL [n4],more than 40%,fibril formation of full length amylin was enhanced,increase fibrillogenesis of amylin to an aggregate that is larger than 1000 nm,3.8 ×10^7 aggregates/mL,5.1 ×10^7 aggregates/mL,2.3 ×10^7 aggregates/mL,1.7 ×10^7 aggregates/mL,1.7* ×10^7 aggregates/mL,1.8 ×10^7 aggregates/mL,significantly lower than in samples containing amylin only,"concentrations of 100–150, […]–200 and 200–300 nm aggregates at 10 min vs amylin only (amylin [2]; NTA, 10 min, amylin:derivative 50:250 μmol L^−1, unpaired t-test): not significantly different"
FLVHSS [n3],more than 40%,fibril formation of full length amylin was enhanced,increase fibrillogenesis of amylin to an aggregate that is larger than 1000 nm,2.0 ×10^7 aggregates/mL,1.4* ×10^7 aggregates/mL,1.2 ×10^7 aggregates/mL,3.4 ×10^7 aggregates/mL,1.9* ×10^7 aggregates/mL,2.1 ×10^7 aggregates/mL,significantly lower than in samples containing amylin only,"effect on amylin aggregation over 24 h (amylin [2]; NTA, all size ranges, amylin:derivative 50:250 μmol L^−1, vs amylin only): small amount of aggregates of all size ranges which increases only marginally over 24 h"
"Amylin: chemically synthesized full-length human amylin, 37 amino acid long peptide (KCNTATCATQRLANFLVHSSNNFGAILSSTNVGSNTY; Islet amyloid polypeptide; UniProt P10997 34-70, looked up) [reference compound]",,,,5.7 ×10^7 aggregates/mL,7.0 ×10^7 aggregates/mL,5.4 ×10^7 aggregates/mL,2.9 ×10^7 aggregates/mL,2.7 ×10^7 aggregates/mL,2.5 ×10^7 aggregates/mL,,"amylin growth rate (AFM) (amylin [3]; AFM): 1.1 nm/min; mass-per-length (MPL) of amylin protofibril (amylin [3]; STEM): 10 kDa nm^−1; approximate rate of amylin aggregation (amylin [3]; estimated from literature AFM and STEM values): ~11 kDa min^−1; critical concentration of 200–300 nm aggregates for amylin-mediated cytotoxicity (amylin [2]; NTA correlated to cytotoxicity data, suggested): more than 2.1 × 10^7 aggregates per millilitre; size of toxic species of amylin (amylin [2]; NTA correlated to previously published cytotoxicity (ref 73), tentatively suggested): 200–300 nm; predominant aggregate size (amylin [2]; NTA, amylin 50 μmol L^−1 alone, 37 °C, pH 7.4, over 24 h): 150–200 nm and 200–300 nm; completion of aggregation (amylin [2]; NTA, amylin alone): complete aggregation of amylin occurs within the first hour; concentration of 100–150, […]–200 and 200–300 nm aggregates after the first hour (amylin [2]; NTA, amylin alone, stable up until 24 h): 2.5 × 10^7 – 3.0 × 10^7 aggregates per millilitre; total concentration of aggregates (amylin [2]; initial NTA, 50 μmol L^−1 amylin): 3.12 × 10^8 aggregates per millilitre"
"insulin: insulin, binding to sensor chip-bound biotinylated amylin",,,,,,,,,,,response change during binding to biotinylated amylin [4]: 15 RUs; effect on fibril formation (full length amylin): inhibit fibril formation
TQRLA* [m2],,,,3.9 ×10^7 aggregates/mL,2.6* ×10^7 aggregates/mL,2.4 ×10^7 aggregates/mL,3.6** ×10^7 aggregates/mL,4.6 ×10^7 aggregates/mL,7.9 ×10^7 aggregates/mL,,"inhibitory effect on amylin-mediated cytotoxicity [1]: not to have an inhibitory effect on amylin-mediated cytotoxicity; concentration of 200–300 nm aggregates, with derivative (amylin [2]; NTA, similar to or more than amylin only): ≥ 2.7 × 10^7 aggregates per millilitre"
Aβ1–40: amyloid beta; SPR-derived kinetics were generated using the 1–40 form of Aβ,,,,,,,,,,,"aggregation rate compared with 1–42 form of Aβ (Aβ [5]): aggregate much more slowly than the 1–42 form of Aβ; Aβ association rate (Aβ [6]; conditions similar to present study): 0.01 complexes per second; Aβ dissociation kd (Aβ [6]; global fit, first-order kinetic model): 0.00223 s⁻¹; Aβ dissociation kd (Aβ [6]; printed spread ± 1.3 × 10^−4 s^−1): 0.00092 s⁻¹; Aβ dissociation time (Aβ [6]; ref 39 (by order of citation)): 7.5 min; Aβ dissociation time (Aβ [6]; ref 80 (by order of citation)): 18 min"
